From ChEMBL document CHEMBL1157738, “Simocyclinone D8 turns on against Gram-negative bacteria in a clinical setting” (2010) come the findings set out here.

Test [1] concerns Escherichia coli. Kind of test: Antibacterial activity against Escherichia coli isolate 24 assessed as residual bacterial survival at 50 mg/L after 24 hrs by twofold serial dilution method. The class given is functional. The conditions noted are these: isolate 24, 24 h.
The test system of test [2] is Klebsiella pneumoniae. Description: Antibacterial activity against Klebsiella pneumoniae isolate 173 assessed as residual bacterial survival at 50 mg/L after 24 hrs by twofold serial dilution method. The class given is functional. The conditions noted are these: isolate 173, 24 h.
For test [3], the system named is Klebsiella pneumoniae. Description: Antibacterial activity against Klebsiella pneumoniae isolate 16 expressing qnr B19 gene, GyrA D87G mutant assessed as residual bacterial survival at 50 mg/L after 24 hrs by twofold serial dilution method. The class given is functional. The conditions noted are these: isolate 16, 24 h.
Test [4] has as its system Klebsiella pneumoniae. Kind of test: Antibacterial activity against Klebsiella pneumoniae isolate 97 expressing qnr B19 gene assessed as residual bacterial survival at 50 mg/L after 24 hrs by twofold serial dilution method. The class given is functional. The conditions noted are these: isolate 97, 24 h.
Test [5] concerns Escherichia coli. Kind of test: Antibacterial activity against Escherichia coli Top10 assessed as drug uptake. The class given is functional, organism-based.
The test system of test [6] is Klebsiella pneumoniae. Description: Antibacterial activity against Klebsiella pneumoniae isolate 204 expressing qnr B19 gene after 24 hrs by twofold serial dilution method. The class given is functional.
The subject of test [7] is Escherichia coli. Kind of test: Antibacterial activity against Escherichia coli isolate 32 after 24 hrs by twofold serial dilution method. The class given is functional.
In test [8] the test system is Escherichia coli. Description: Antibacterial activity against Escherichia coli JM109 after 24 hrs by twofold serial dilution method. The class given is functional.
The test system of test [9] is Escherichia coli. Kind of test: Antibacterial activity against Escherichia coli JM110 after 24 hrs by twofold serial dilution method. The class given is functional.
Test [10] concerns Staphylococcus aureus. Kind of test: Antibacterial activity against Staphylococcus aureus after 24 hrs by twofold serial dilution method. The class given is functional.
Test [11] concerns Escherichia coli. Kind of test: Antibacterial activity against Escherichia coli JM109 assessed as residual bacterial survival at 50 mg/L after 24 hrs by twofold serial dilution method. The class given is functional. Particulars: JM109, JM 109, 24 h.
Test [12] has as its system Escherichia coli. Description: Antibacterial activity against Escherichia coli isolate 13 assessed as residual bacterial survival at 50 mg/L after 24 hrs by twofold serial dilution method. The class given is functional. Particulars: isolate 13, 24 h.
Test [13] deals with Escherichia coli. Description: Antibacterial activity against Escherichia coli isolate 115 expressing GyrA S83L mutant assessed as residual bacterial survival at 50 mg/L after 24 hrs by twofold serial dilution method. The class given is functional. Particulars: isolate 115, 24 h.
Test [14] concerns Escherichia coli. Kind of test: Antibacterial activity against Escherichia coli isolate 85 expressing GyrA S83L mutant assessed as residual bacterial survival at 50 mg/L after 24 hrs by twofold serial dilution method. The class given is functional. Particulars: isolate 85, 24 h.
The subject of test [15] is Escherichia coli. Kind of test: Antibacterial activity against Escherichia coli isolate 47 expressing qnr B19 gene after 24 hrs by twofold serial dilution method. The class given is functional.

Values after ≈ are worked out from the molar mass of the structure shown.

For the molecule `CC(=O)O[C@@H]1[C@@H](C)O[C@@H](c2ccc3c(c2O)[C@@H](O)[C@]24O[C@@]2(C3=O)[C@@]2(O)C(=O)C=C(C)C[C@@]2(O)C[C@@H]4O)C[C@H]1OC(=O)/C=C/C=C/C=C/C=C/C(=O)Nc1c(O)c2ccc(O)c(Cl)c2oc1=O` [SIMOCYCLINONE D8], the survival at 50 µg/mL is 21% in test [1]; 83% in test [2]; greater than 90% in [3]; 68% in [4]; greater than 90% in test [11]; greater than 90% in test [12]. Besides, the survival at 50 µg/mL in test [13] and in test [14] was greater than 90% each time. Moreover, the Drug uptake in test [5] turned out to be 80 pmol. For the same molecule, the MIC50 is greater than 100% in test [6]; greater than 100 µg/mL in [7]; greater than 100 µg/mL in test [8]; greater than 100 µg/mL in test [9]; 50 µg/mL (≈ 53.6 µM) in test [10]; 12 µg/mL (≈ 12.9 µM) in [15].
